Consider one molecule from patent publication US20150354009A1, “COLORECTAL CANCER CLASSIFICATION WITH DIFFERENTIAL PROGNOSIS AND PERSONALIZED THERAPEUTIC RESPONSES” (ECOLE POLYTECHNIQUE FEDERALE DE LAUSANNE (EPFL), priority 2012, published 2015).

For this experiment, the system named is CRC cell lines. The experiment in a line: Drug response in cell lines (CellTiter-Glo proliferation, 72 h). In kind it is cell-based, human. The note with it: PHA-665752 125 nM, relative to vehicle-treated cells (FIG. 3E). The protocol:
Colon cancer cell lines were grown in DMEM (Gibco, USA) plus 10% FBS (Invitrogen, USA) without antibiotics/antimycotics. All the cell lines were confirmed to be negative for mycoplamsa by PCR (VenorGeM kit, Sigma, USA) prior to use and were tested monthly.
Proliferation was monitored using CellTiter-Glo® assay kit according to the manufacturer's instruction (Promega, Dubendorf, Switzerland) on day 3 (72 h).

On to `Cc1[nH]c(/C=C2\C(=O)Nc3ccc(S(=O)(=O)Cc4c(Cl)cccc4Cl)cc32)c(C)c1C(=O)N1CCC[C@@H]1CN1CCCC1` [cMet inhibitor, PHA-665752], for which the “sensitivity to cMet inhibition, CR-TA versus CS-TA cell lines” value is recorded as “CR-TA cell lines were much more sensitive to cMet inhibition than CS-TA cell lines”.
